Results as given in patent US20100087546A1, “USE OF DIMETHYL SULFONE (MSM) TO REDUCE HO[…]” (BIOGENIC INNOVATIONS, LLC, priority 2005, published 2010).
Entries after “also recorded” stand apart in the source; their conditions may differ.

How the values were obtained:
Assay type in all cases: in vivo, human
[1] = test system: osteoarthritis pain of the knee; experiment: 12-week randomized, double-blind, placebo-controlled trial in osteoarthritis of the knee (WOMAC pain and physical function); settings: 3 g twice a day (6 g/day) for 12 weeks, oral, OA of the knee, versus placebo
Excerpt: (§1) In 2005, Applicant commissioned a study to determine the efficacy of dimethyl sulfone in the treatment of pain and physical function impairment due to osteoarthritis. The results of the study are published in Kim, et al, Efficacy of methylsulfonylmethane (MSM) in osteoarthritis pain of the knee: a pilot clinical trial. OsteoArthritis and Cartilage, herein incorporated by reference in its entirety. Patients were given dosage of 6 g of dimethyl sulfone (Distilled MSM microprill (OptiMSM®, Cardinal Nutrition, Vancouver, Wash.)) per day in a stepwise approach. In week 1, dosages started with 2 g/day in two divided doses for 3 days, and then increased to 4 g/day for 4 days. Week 2, increased to 6 g/day. In the control group, a placebo was administered that consisted of inert ingredients and that was indistinguishable in color, size and taste from the dimethyl sulfone.
In a study directed by Applicant or its related affiliate, and as reported in Kim et al (published in 2006), herein incorporated by reference in its entirety, the effects of dimethyl sulfone on OA of the knee were evaluated. Qualified patients (n=50) were as-signed to MSM (n=25) or placebo (n=25) in a 12-week randomized, double-blind, placebo-controlled trial using computer-generated random numbers (FIG. 1).
At week 1, subjects were administered 2 g/day in two divided doses for 3 days, and then increased to 4 g/day for 4 days. […]

homocysteine = experiment: Serum homocysteine measured at baseline and 12 weeks in the 2005 osteoarthritis study; settings: 6 g/day, baseline versus 12 weeks, FIG. 2
Excerpt: as §1
(§2) During the 2005 osteoarthritis study, described above, dimethyl sulfone's potential activities were also evaluated. Serum homocysteine, high sensitive C-reactive protein (CRP), erythrocyte sedimentation rate (ESR), and urine malondialdehyde (MDA) were measured at baseline and 12 weeks.
Since dimethyl sulfone is a putative methyl donor, it was believed that dimethyl sulfone may act as a co-factor in reducing homocysteine levels. […]

malondialdehyde (MDA) = experiment: Urine malondialdehyde (MDA) measured at baseline and 12 weeks in the 2005 osteoarthritis study; settings: 6 g/day, baseline versus 12 weeks
Excerpt: as §1, §2
The combined decreases in homocysteine and urine MDA during the 2005 osteoarthritis study supports the role of dimethyl sulfone in metabolic processes requiring methylation, such as antioxidant capacities. […]

[2] = 2008 acute oral dosing study, pharmacokinetic blood draws (serum dimethyl sulfone levels)
Protocol: In a study directed by Applicant or its related affiliate in 2008, six participants received three doses of dimethyl sulfone at three acute test visits spaced one week apart. Subjects were monitored for four hours post dose, with pharmacokinetic (PK) and phamacodynamic blood draws at 0, 45, 90, 135, 180 and 240 minutes post dosing. Subjects also provided a 24-hour post-dose urine collection for assay of dimethyl sulfone and sulfate levels.
Rough estimates have been obtained for the half times of absorption (½ hour) and elimination (8 hours).

[3] = blood draws 0-240 minutes post dosing
[4] = six participants, rough estimate

dimethyl sulfone
symptoms of pain and physical function (WOMAC subscales) [1]: produced improvement in two of the three WOMAC subscales, pain and physical function | symptoms of pain and physical function (WOMAC subscales) ([1]; listed as dimethyl sulfone): improved symptoms of pain and physical function | serum homocysteine levels (homocysteine): significantly decreased; also recorded: decreases | urine MDA (malondialdehyde (MDA)): decreases | absorption from the upper gastrointestinal tract (serum level pattern) [2, 3]: fairly rapid absorption from the upper gastrointestinal tract (within an hour) | elimination from the bloodstream (serum level pattern) [2, 3]: slower elimination from the bloodstream (over the course of one or two days) | half time of absorption [2, 4]: ½ | half time of elimination [2, 4]: ~8 h
